The values below come from ChEMBL document CHEMBL1201862, “PubChem BioAssay data set” (2004).

Each structure is given as a SMILES string.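 Cultured in 96-well plates, cells were exposed to test compound for 48 hours across five concentrations. Abbreviation: GI50, concentration required for 50% inhibition of growth.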 The source made the active and inactive calls. Cut-off read from the data, not from the text of the source: active = GI50 up to about 1.1 µM and inactive = higher.

Holding throughout (assay): growth of human tumour cells (NCI), 48 h
Assay [1] deals with 786-0.
The test system of assay [2] is BT-549.
Assay [3] concerns CAKI-1.
Assay [4] deals with DU-145.
Assay [5] has as its system HL-60.
Assay [6] deals with K562.
Assay [7] concerns MDA-MB-231.
For assay [8], the system named is MDA-MB-435.
The test system of assay [9] is MOLT-4.
Assay [10] deals with Malme-3M.
Assay [11] concerns NCI-H226.
In assay [12] the test system is NCI-H23.
Assay [13] concerns NCI-H460.
Assay [14] has as its system OVCAR-4.
Assay [15] relates to OVCAR-8.
Assay [16] concerns PC-3.
The test system of assay [17] is SK-MEL-28.
The subject of assay [18] is TK-10.
In assay [19] the test system is UACC-62.
Assay [20] relates to UO-31.

With `c1ccc(CN2CCC(CNc3ncnc4ccccc34)C2)cc1` (stereo not given), the GI50 was > 100 µM (inactive) in [1]; > 100 µM (inactive) in [2]; > 100 µM (inactive) in assay [3]; > 100 µM (inactive) in [4]; 25.8 µM (inactive) in assay [5]; 23 µM (inactive) in assay [6]. Also, the GI50 in assay [7] is > 100 µM (inactive); in assay [8], 45 µM (inactive); in assay [9] it was 34.4 µM (inactive); in assay [10] it was 19.5 µM (inactive); in assay [11], 76.9 µM (inactive); in assay [12] it was 40.3 µM (inactive). Also, the GI50 in assay [13] is 44.3 µM (inactive); in assay [14], 35.8 µM (inactive); in assay [15], 83 µM (inactive); in assay [16] it was 95.3 µM (inactive); in assay [17] it was 25.9 µM (inactive); in assay [18] it was 44.5 µM (inactive). In addition, the values for the GI50 in assay [19] and in [20] were > 100 µM (inactive) and 63.1 µM (inactive), respectively.

Regarding `CC[C@@]1(O)C(=O)OCc2c1cc1n(c2=O)Cc2c-1nc1ccccc1c2/C=N/NC(=O)c1ccc(N)cc1`, the GI50 in assay [1] was 0.0422 µM (active); in [2], 0.391 µM (active); in assay [3], 0.0589 µM (active); in assay [4] it was 0.0383 µM (active); in [5], 0.0327 µM (active); in assay [6], 0.075 µM (active). Further, the GI50 was 3.06 µM (inactive) in [7]; 0.197 µM (active) in assay [8]; 0.0111 µM (active) in [9]; 0.452 µM (active) in [10]; 0.04 µM (active) in assay [11]; 0.0798 µM (active) in assay [12]. Moreover, the GI50 is 0.0796 µM (active) in [13]; 3.73 µM (inactive) in assay [14]; 0.0944 µM (active) in assay [15]; 0.177 µM (active) in assay [16]; 0.263 µM (active) in assay [17]; 15.6 µM (inactive) in assay [18]. The figures for the GI50 in [19] and in assay [20] were 0.0208 µM (active) and 0.258 µM (active), respectively.

Take `CC1(C)CC(=O)C2=C(C1)NC1=C(C2)C(=O)CC(C)(C)C1`: the GI50 in assay [1], in [2], in assay [3], in [4], in assay [5] and in assay [6] was > 100 µM (inactive) throughout. Further, the GI50 in assay [7], in assay [8], in [9], in [10], in assay [11] and in assay [12] was > 100 µM (inactive) throughout. For the same compound, the GI50 in assay [13], in assay [14], in [15], in assay [16], in assay [17] and in assay [18] was > 100 µM (inactive) each time. Besides, the GI50 in [19] and in [20] was > 100 µM (inactive) each time.

On to `O=S1OC[C@H](CCCl)O1` (stereo not given in full), for which the GI50 in [1], in assay [2], in [3], in assay [4], in [5] and in [6] was > 100 µM (inactive) throughout. For the same compound, the GI50 in assay [7], in assay [8], in assay [9], in [10], in [11] and in assay [12] was > 100 µM (inactive) each time. Also, the GI50 in assay [13] is > 100 µM (inactive); in assay [14] it was > 100 µM (inactive); in [15] it was > 100 µM (inactive); in assay [16], > 100 µM (inactive); in assay [17] it was 69.5 µM (inactive); in assay [18], > 100 µM (inactive). Further, the GI50 in assay [19] and in assay [20] was > 100 µM (inactive) each time.

Consider `O=C(OCc1ccccc1)N(CCCCN(CCCNCc1ccccc1)C(=O)OCc1ccccc1)CCCNCc1ccccc1`, for which the GI50 in assay [1] was 0.289 µM (active); in [2] it was 1.62 µM (inactive); in [3], 1.42 µM (inactive); in [4], 1.27 µM (inactive); in assay [5], 0.186 µM (active); in assay [6], 0.208 µM (active). The GI50 is 0.885 µM (active) in assay [7]; 0.242 µM (active) in [8]; 0.194 µM (active) in assay [9]; 1.71 µM (inactive) in [10]; 1.05 µM (active) in assay [11]; 1.77 µM (inactive) in [12]. The GI50 in assay [13] was 0.188 µM (active); in assay [14], 1.66 µM (inactive); in assay [15], 1.54 µM (inactive); in assay [16], 1.11 µM (active); in assay [17], 1.62 µM (inactive); in [18], 1.58 µM (inactive). Also, the GI50 was 0.881 µM (active) in assay [19] and 1.38 µM (inactive) in assay [20].

Take `Cn1c2ccccc2n2c3nc4ccccc4nc3c(C#N)c12`: the GI50 in assay [1] was 93.8 µM (inactive); in assay [2], > 100 µM (inactive); in assay [3] it was > 100 µM (inactive); in [4] it was > 100 µM (inactive); in [5] it was > 87.9 µM (inactive); in assay [6] it was 65.3 µM (inactive). The GI50 is > 97.1 µM (inactive) in assay [7]; > 85.7 µM (inactive) in assay [8]; 57.8 µM (inactive) in assay [9]; > 81.8 µM (inactive) in [10]; > 100 µM (inactive) in [11]; > 96.8 µM (inactive) in [12]. Besides, the GI50 is 5.48 µM (inactive) in [13]; > 71.8 µM (inactive) in [14]; 74.1 µM (inactive) in assay [15]; > 96.8 µM (inactive) in [16]; > 100 µM (inactive) in assay [17]; > 10 µM (inactive) in assay [18]. Also, the GI50 is 65.5 µM (inactive) in [19] and 77.3 µM (inactive) in [20].

In the case of `Nc1cc2c(nnn2C2OC(COCc3ccccc3)C(OCc3ccccc3)C2OCc2ccccc2)c(=O)[nH]1` (stereo not given), the GI50 was 19.6 µM (inactive) in assay [1]; 20 µM (inactive) in [2]; > 100 µM (inactive) in assay [3]; 35.9 µM (inactive) in [4]; 5.47 µM (inactive) in assay [5]; 7.41 µM (inactive) in assay [6]. Further, the GI50 in assay [7] is 21.6 µM (inactive); in assay [8], 10.9 µM (inactive); in assay [9] it was 7.85 µM (inactive); in assay [10], 27.7 µM (inactive); in [11], 15.5 µM (inactive); in assay [12] it was 19.5 µM (inactive). The GI50 in assay [13] is 15.9 µM (inactive); in assay [14], 12.5 µM (inactive); in assay [15], 18.9 µM (inactive); in assay [16], 6.4 µM (inactive); in assay [17], 46.9 µM (inactive); in [18], 10 µM (inactive). For the same compound, the GI50 in assay [19] was 14.9 µM (inactive); in assay [20], 58.1 µM (inactive).

Consider `Nc1ccc(S(=O)(=O)Nc2ccc(Nc3c4ccccc4nc4ccccc34)cc2)cc1`, for which the GI50 in [1] is 0.0413 µM (active); in assay [2], 0.0906 µM (active); in assay [3], < 0.0126 µM (active); in [4] it was < 0.01 µM (active); in [5] it was < 0.0102 µM (active); in assay [6], 0.0716 µM (active). Further, the GI50 in assay [7] is 2.08 µM (inactive); in assay [8], 9.33 µM (inactive); in [9], < 0.01 µM (active); in assay [10] it was 0.0675 µM (active); in assay [11], 0.0101 µM (active); in [12], 0.0185 µM (active). For the same compound, the GI50 in assay [13] is 0.0347 µM (active); in [14] it was 3.66 µM (inactive); in assay [15] it was 0.041 µM (active); in assay [16], 0.0555 µM (active); in assay [17], 0.738 µM (active); in assay [18], 0.566 µM (active). Moreover, the GI50 was 0.0213 µM (active) in [19] and 0.195 µM (active) in [20].

As to `COc1ccc2c(c1)c1nn(CCN3CCCCC3)c3ccc4c(=O)n(CCN(C)C)c(=O)n2c4c13`, the GI50 was < 0.01 µM (active) in [1]; 0.245 µM (active) in [2]; 0.0219 µM (active) in [3]; < 0.01 µM (active) in assay [4]; 0.076 µM (active) in assay [5]; < 0.01 µM (active) in assay [6]. Also, the GI50 was < 0.0119 µM (active) in assay [7]; < 0.0109 µM (active) in [8]; < 0.01 µM (active) in assay [9]; 0.0619 µM (active) in [10]; 0.0231 µM (active) in assay [11]; < 0.022 µM (active) in assay [12]. The GI50 is < 0.01 µM (active) in assay [13]; < 0.01 µM (active) in assay [14]; < 0.01 µM (active) in assay [15]; 0.019 µM (active) in assay [16]; 0.139 µM (active) in assay [17]; 0.029 µM (active) in assay [18]. Also, the GI50 in assay [19] was 0.0304 µM (active); in [20], < 0.0116 µM (active).
